From patent US12209085B2, “RET inhibitors, pharmaceutical compositions and uses thereof” (SUNSHINE LAKE PHARMA CO., LTD., priority 2018, dated 2025) come the findings set out here.

One assay deals with Ret V804M (Homo sapiens (Human), UniProt P07949, V804M). Briefly: HTRF kinase inhibition assay, Ret V804M. In kind it is biochemical. The conditions noted are these: HTRF method. An excerpt: (§1) • 1. […] 1) • 18) Echo (Labcyte, 550) • 3.
(§2) [formula] • Ratiopositive control: average of CEP-32496 readings in all positive control wells • Rationegative control: average of DMSO readings in all negative control wells • Wherein, the chemical name of CEP-32496 is: N-[3-[(6,7-dimethoxy-4-quinazolinyl)oxy]phenyl]-N′-[5-(2,2,2-trifluoro-1,1-dimethylethyl)-3-isoxazolyl]urea. • 4.3 Calculation of the IC50 and Drawing of the inhibition curve of the compound: • The IC50 (half inhibitory concentration) of the compound was obtained using the following non-linear fitting formula: Data analysis was performed using Graphpad 6.0 software. Y=Bottom+(Top−Bottom)/(1+10^((Log IC50−X)*Hill Slope)) • X: compound concentration log value Y: inhibition, % • 5.
(In general: TR-FRET usually uses a lanthanide donor and a delayed reading to cut background.)

The target of a further assay is Ret wt (Homo sapiens (Human), UniProt P07949). Description: HTRF kinase inhibition assay, Ret wt. In kind it is biochemical. The conditions noted are these: HTRF method.
From the text: as §1, §2

Ret V804M, sequence (P07949 29-1114 V804M): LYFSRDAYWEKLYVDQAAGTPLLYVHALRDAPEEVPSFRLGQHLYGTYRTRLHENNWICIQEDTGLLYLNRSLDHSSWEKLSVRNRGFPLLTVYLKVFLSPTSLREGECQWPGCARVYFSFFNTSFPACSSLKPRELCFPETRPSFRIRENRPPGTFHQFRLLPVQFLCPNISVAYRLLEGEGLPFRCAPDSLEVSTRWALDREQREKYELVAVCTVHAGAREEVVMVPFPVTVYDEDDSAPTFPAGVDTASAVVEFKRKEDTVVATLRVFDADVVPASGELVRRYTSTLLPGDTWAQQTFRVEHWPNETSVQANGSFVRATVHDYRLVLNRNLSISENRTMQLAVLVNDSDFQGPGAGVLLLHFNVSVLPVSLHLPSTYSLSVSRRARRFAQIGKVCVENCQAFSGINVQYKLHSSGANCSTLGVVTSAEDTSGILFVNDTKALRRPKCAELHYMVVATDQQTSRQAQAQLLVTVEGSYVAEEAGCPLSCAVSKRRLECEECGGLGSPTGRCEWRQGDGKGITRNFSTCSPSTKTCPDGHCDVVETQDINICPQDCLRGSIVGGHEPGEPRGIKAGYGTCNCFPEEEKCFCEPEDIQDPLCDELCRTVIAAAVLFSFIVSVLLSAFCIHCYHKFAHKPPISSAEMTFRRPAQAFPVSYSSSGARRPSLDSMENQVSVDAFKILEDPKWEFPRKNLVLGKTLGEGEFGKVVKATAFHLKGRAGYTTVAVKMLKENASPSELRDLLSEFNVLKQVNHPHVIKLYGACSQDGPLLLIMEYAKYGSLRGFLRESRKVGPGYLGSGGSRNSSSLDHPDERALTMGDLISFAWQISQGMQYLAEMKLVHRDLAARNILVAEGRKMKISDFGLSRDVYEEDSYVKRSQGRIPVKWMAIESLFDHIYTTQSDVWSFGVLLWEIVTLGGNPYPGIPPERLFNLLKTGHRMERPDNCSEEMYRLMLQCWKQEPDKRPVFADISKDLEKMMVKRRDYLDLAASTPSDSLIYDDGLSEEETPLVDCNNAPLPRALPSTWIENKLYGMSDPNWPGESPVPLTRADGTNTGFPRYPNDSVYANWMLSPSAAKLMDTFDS
Ret wt, sequence (P07949 29-1114): as the sequence (P07949 29-1114 V804M) above, with M776V counted along it

As a reminder, the IC50 is the point on the concentration scale where inhibition reaches its midpoint. Higher therefore signals a need for much substance. As to `C#Cc1cc(C(=O)N2CCN(c3ccc(-c4cc(-c5cnn(C)c5)cn5ncc(C#N)c45)cn3)CC2)ccc1F` [Example 239, 4-(6-(4-(3-ethynyl-4-fluorobenzoyl)piperazin-1-yl)pyridin-3-yl)-6-(1-methyl-1H-pyrazol-4-yl)pyrazolo[1,5-a]pyridine-3-carbonitrile], the IC50 against Ret V804M was 12.3 nM; against Ret wt, 0.62 nM.
For `COc1cc(C#CCN2CCN(c3ccc(-c4cc(-c5cnn(C)c5)cn5ncc(C#N)c45)cn3)CC2)ccn1` [Example 243, 4-(6-(4-(3-(2-methoxypyridin-4-yl)prop-2-yn-1-yl)piperazin-1-yl)pyridin-3-yl)-6-(1-methyl-1H-pyrazol-4-yl)pyrazolo[1,5-a]pyridine-3-carbonitrile], in that order: 37.8 nM and 3.51 nM.
The corresponding values for `Cn1cc(-c2cc(-c3ccc(N4CC5CC(C4)N5CC#Cc4ccccn4)nc3)c3c(C#N)cnn3c2)cn1` [Example 244] are 0.27 nM and 0.15 nM.
Take `Cn1cc(-c2cc(-c3ccc(N4CC5CC(C4)N5CC#Cc4ccncc4)nc3)c3c(C#N)cnn3c2)cn1` [Example 245, 6-(1-methyl-1H-pyrazol-4-yl)-4-(6-(6-(3-(pyridin-4-yl)propan-2-yn-1-yl)-3,6-diazabicyclo[3.1.1]heptan-3-yl)pyridin-3-yl)pyrazole[1,5-a]pyridine-3-carbonitrile]: the figures for the half-inhibitory concentration (IC50) on Ret V804M and on Ret wt were 10.7 nM and 0.65 nM, respectively.
The corresponding values for `Cn1cc(-c2cc(-c3ccc(N4CCN(CC#Cc5ccc(C(F)(F)F)cc5)CC4)nc3)c3c(C#N)cnn3c2)cn1` [Example 246, 6-(1-methyl-1H-pyrazol-4-yl)-4-(6-(4-(3-(4-(trifluoromethyl)phenyl)prop-2-yn-1-yl)piperazine-1-yl)pyridin-3-yl)pyrazolo[1,5-a]pyridine-3-carbonitrile] are 198 nM and 7.06 nM.
With `Cn1cc(-c2cc(-c3ccc(N4CCN(CC#Cc5ccccn5)CC4)nc3)c3c(C#N)cnn3c2)cn1` [Example 247, 6-(1-methylpyrazol-4-yl)-4-[6-[4-[3-(2-pyridyl)prop-2-ynyl]piperazin-1-yl]-3-pyridyl]pyrazolo[1,5-a]pyridine-3-carbonitrile], the values for the half-maximal inhibitory concentration (IC50) against Ret V804M and against Ret wt were 1.94 nM and 0.15 nM, respectively.
For `Cn1cc(-c2cc(-c3ccc(N4CCN(CC#Cc5cccnc5)CC4)nc3)c3c(C#N)cnn3c2)cn1` [Example 248, 6-(1-methylpyrazol-4-yl)-4-[6-[4-[3-(3-pyridyl)prop-2-ynyl]piperazin-1-yl]-3-pyridyl]pyrazolo[1,5-a]pyridine-3-carbonitrile], in that order: 5.76 nM and 0.58 nM.
The corresponding values for `Cn1cc(-c2cc(-c3ccc(N4CC5CC(C4)N5CC#Cc4cccnc4)nc3)c3c(C#N)cnn3c2)cn1` [Example 249, 6-(1-methylpyrazol-4-yl)-4-[6-[6-[3-(3-pyridyl)prop-2-ynyl]-3,6-diazabicyclo[3.1.1]heptan-3-yl]-3-pyridyl]pyrazolo[1,5-a]pyridine-3-carbonitrile] are 1.77 nM and 0.39 nM.
The corresponding values for `Cn1cc(-c2cc(-c3ccc(N4CC5CC(C4)N5CC#Cc4ccccc4)nc3)c3c(C#N)cnn3c2)cn1` [Example 250, 6-(1-methyl-1H-pyrazol-4-yl)-4-(6-(6-(3-phenylprop-2-yn-1-yl)-3,6-diazabicyclo[3.1.1]heptanpyridin-3-yl)pyridin-3-yl)pyrazolo[1,5-a]pyridine-3-carbonitrile] are 0.88 nM and 0.14 nM.
As for `COc1ccc(C#CCN2CCN(c3ccc(-c4cc(-c5cnn(C)c5)cn5ncc(C#N)c45)cn3)CC2)cc1` [Example 251, 4-(6-(4-(3-(4-methoxyphenyl)prop-2-yn-1-yl)piperazin-1-yl)pyridin-3-yl)-6-(1-methyl-1H-pyrazolpyridin-4-yl)pyrazolo[1,5-a]pyridine-3-carbonitrile], the half-inhibitory concentration (IC50) at Ret V804M was found to be 27.9 nM; against Ret wt it was 2.41 nM.
For the molecule `COc1ccnc(C#CCN2CCN(c3ccc(-c4cc(-c5cnn(C)c5)cn5ncc(C#N)c45)cn3)CC2)c1` [Example 252, 4-(6-(4-(3-(4-methoxypyridin-2-yl)propan-2-ynyl-1-yl)piperazin-1-yl)pyridin-3-yl)-6-(1-methyl-1H-pyrazolin-4-yl)pyrazole[1,5-a]pyridine-3-carbonitrile], the half-inhibitory concentration (IC50) at Ret V804M is 3.21 nM; on Ret wt, 0.25 nM.
For `Cn1cc(-c2cc(-c3ccc(N4CCN(CC#Cc5ccccc5)CC4)nc3)c3c(C#N)cnn3c2)cn1` [Example 253, 6-(1-methyl-1H-pyrazol-4-yl)-4-(6-(4-(3-phenylprop-2-yn-1-yl)piperazin-1-yl)pyridine-3-yl)pyrazolo[1,5-a]pyridine-3-carbonitrile], in that order: 5.47 nM and 0.91 nM.
For the molecule `COc1cncc(C#CCN2CCN(c3ccc(-c4cc(-c5cnn(C)c5)cn5ncc(C#N)c45)cn3)CC2)c1` [Example 254, 4-(6-(4-(3-(5-methoxypyridin-3-yl)prop-2-yn-1-yl)piperazin-1-yl)pyridin-3-yl)-6-(1-methyl-1H-pyrazol-4-yl)pyrazolo[1,5-a]pyridine-3-carbonitrile], the half-maximal inhibitory concentration (IC50) was found to be 18.3 nM against Ret V804M and 3.57 nM on Ret wt.
For the molecule `Cn1cc(-c2cc(-c3ccc(N4CCN(CC#Cc5cccnc5F)CC4)nc3)c3c(C#N)cnn3c2)cn1` [Example 255, 4-[6-[4-[3-(2-fluoro-3-pyridyl)prop-2-ynyl]piperazin-1-yl]-3-pyridyl]-6-(1-methylpyrazol-4-yl)pyrazolo[1,5-a]pyridine-3-carbonitrile], the IC50 against Ret V804M was determined as 4.11 nM; against Ret wt, 0.57 nM.
For `Cn1cc(-c2cc(-c3ccc(N4CC5CC(C4)N5CC#Cc4cccnc4F)nc3)c3c(C#N)cnn3c2)cn1` [Example 256, 4-[6-[6-[3-(2-fluoro-3-pyridyl)prop-2-ynyl]-3,6-diazabicyclo[3.1.1]heptan-3-yl]3-pyridyl]-6-(1-methylpyrazol-4-yl)pyrazolo[1,5-a]pyridine-3-carbonitrile], in that order: 0.44 nM and 0.14 nM.
For `Cn1cc(-c2cc(-c3ccc(N4CCN(CC#Cc5ncccc5F)CC4)nc3)c3c(C#N)cnn3c2)cn1` [Example 257, 4-(6-(6-(3-(3-fluoropyridin-2-yl)prop-2-yn-1-yl)piperazin-3-yl)pyridin-3-yl)-6-(1-methyl-1H-pyrazol-4-yl)pyrazoline[1,5-a]pyridine-3-carbonitrile], the half-inhibitory concentration (IC50) against Ret V804M is 0.74 nM; on Ret wt it was 0.17 nM.
As for `Cn1cc(-c2cc(-c3ccc(N4CC5CC(C4)N5CC#Cc4ncccc4F)nc3)c3c(C#N)cnn3c2)cn1` [Example 258, 4-(6-(6-(3-(3-fluoropyridin-2-yl)prop-2-yn-1-yl)-3,6-diazabicyclo[3.1.1]heptane-3-yl)pyridin-3-yl)-6-(1-methyl-1H-pyrazol-4-yl)pyrazoline[1,5-a]pyridin-3-carbonitrile], the half-maximal inhibitory concentration (IC50) against Ret V804M turned out to be 0.21 nM; against Ret wt, 0.15 nM.
The corresponding values for `Cn1cc(-c2cc(-c3ccc(N4CC5CC(C4)N5CC#Cc4cncc(F)c4)nc3)c3c(C#N)cnn3c2)cn1` [Example 259, 4-(6-(6-(3-(5-fluoropyridin-3-yl)prop-2-yn-1-yl)-3,6-diazabicyclo[3.1.1]heptane-3-yl)pyridin-3-yl)-6-(1-methyl-1H-pyrazol-4-yl)pyrazolo[1,5-a]pyridin-3-carbonitrile] are 0.91 nM and 0.16 nM.
Take `Cn1cc(-c2cc(-c3ccc(N4CCN(CC#Cc5ccc(F)nc5)CC4)nc3)c3c(C#N)cnn3c2)cn1` [Example 261, 4-[6-[4-[3-(6-fluoro-3-pyridyl)prop-2-ynyl]piperazin-1-yl]-3-pyridyl]-6-(1-methylpyrazol-4-yl)pyrazolo[1,5-a]pyridine-3-carbonitrile]: the IC50 against Ret V804M stood at 5.1 nM; against Ret wt, 3.1 nM.
For `Cn1cc(-c2cc(-c3ccc(N4CC5CC(C4)N5CC#Cc4ccc(F)nc4)nc3)c3c(C#N)cnn3c2)cn1` [Example 262, 4-[6-[6-[3-(6-fluoro-3-pyridyl)prop-2-ynyl]-3,6-diazabicyclo[3.1.1]heptan-3-yl]3-pyridyl]-6-(1-methylpyrazol-4-yl)pyrazolo[1,5-a]pyridine-3-carbonitrile], in that order: 1.92 nM and 0.2 nM.
As for `Cn1cc(-c2cc(-c3ccc(N4CCN(CC#Cc5ccncc5)CC4)nc3)c3c(C#N)cnn3c2)cn1` [Example 263, 6-(1-methyl-1H-pyrazol-4-yl)-4-(6-(4-(3-(pyridin-4-yl)prop-2-yn-1-yl)piperazin-1-yl)pyridine-3-yl)pyrazolo[1,5-a]pyridine-3-carbonitrile], the half-inhibitory concentration (IC50) was determined as 31.4 nM on Ret V804M and 2.5 nM on Ret wt.
For `Cn1cc(-c2cc(-c3ccc(N4CCN(CC#Cc5cncc(C(F)(F)F)c5)CC4)nc3)c3c(C#N)cnn3c2)cn1` [Example 265], in that order: 69.6 nM and 3.65 nM.
The corresponding values for `COc1cncc(C#CC(=O)N2C3CC2CN(c2ccc(-c4cc(-c5cnn(C)c5)cn5ncc(C#N)c45)cn2)C3)c1` [Example 270, 4-(6-(6-(3-(5-methoxypyridin-3-yl)propioloyl)-3,6-diazabicyclo[3.1.1]heptan-3-yl)pyridin-3-yl)-6-(1-methyl-1H-pyrazol-4-yl)pyrazolo[1,5-a]pyridine-3-carbonitrile] are 4.9 nM and 1.1 nM.
The corresponding values for `Cn1cc(-c2cc(-c3ccc(N4CC5CC(C4)N5C(=O)C#Cc4ccccc4)nc3)c3c(C#N)cnn3c2)cn1` [Example 271, 6-(1-methyl-1H-pyrazol-4-yl)-4-(6-(6-(3-phenylpropioloyl)-3,6-diazabicyclo[3.1.1]heptane-3-yl)pyridin-3-yl)pyrazolo[1,5-a]pyridine-3-carbonitrile] are 74.1 nM and 5.82 nM.
